From patent publication US7763267B2, “Versatile high load concentrate compositions for control of ecto- parasites” (Wyeth LLC, priority 2005, dated 2010)

System: biting lice
Assay: Effect of metaflumizone body spray on biting lice of sheep
Format: in vivo
Settings: 10 mg/kg as body spray (1500 ml/animal), vs untreated control lice/animal
Procedure: 12.59 grams of metaflumizone is added to dimethyl isosorbide using mild heating (approximately 40° C.). To this solution is added 109.92 grams Cremophor® EL (polyethoxylated castor oil, sold by Basf Aktiengesellschaft), with stirring, followed by q.s. 200 ml 1-methoxy-2-propyl acetate The resultant solution is stored until ready for use, whereupon it can be diluted with water for use as a spray (17 ml of concentrate diluted to 3500 ml with water), or with water for use as a feed/water additive (in approximately the same ratio).
This formulation was diluted with water to a metaflumizone concentration of 10 mg/kg bodyweight, and applied to sheep at 1500 ml/animal to test the effect of metaflumizone on biting lice

Measured: % Efficacy

N#Cc1ccc(CC(=NNC(=O)Nc2ccc(OC(F)(F)F)cc2)c2cccc(C(F)(F)F)c2)cc1 [metaflumizone, (E Z)-2-[2-(4-cyanophenyl)-1-[3-(trifluoromethyl)phenyl]ethylidene]-N-[4-(trifluoromethoxy)phenyl]hydrazinecarboxamide]
100%: 7 days after treatment | 14 days after treatment | 21 days after treatment | 28 days after treatment
